Source: patent US7767804B2, “Compositions and methods for using a solid support to purify RNA” (Qiagen North American Holdings, Inc., priority 2001, dated 2010)
Like-named read-outs stand apart in the source and are kept apart here.

Experiments:
[1] = Source text: Much time and effort was spent screening detergents that would adequately lyse cells and also stay soluble in the Lysing/Binding Solution of the present invention. The Tween, Triton, Tergitol, Nonidet and Igepal family of detergents were examined along with a number of non-ionic detergent-like compounds.
[2] = cited from earlier work; for Type of Heat: heat of aqueous solution; for Heat of Aqueous Solution: tabulated, Handbook of Chemistry and Physics
[3] = pH 8.8
RNase activity = RNase activity with LiCl Wash I Solution, detected as degraded RNA in the final eluted RNA product; assay type: biochemical
Source text: For cesium, ammonium, sodium and potassium chloride salts, the maximum solubilities obtained in 55% ethanol were about 2.5 M, 2 M, 1.5 M, and <1 M, respectively. […] It is likely that RNase activity would be detected using the LiCl and LiBr salts as well, at least some proportion of the time, and depending upon the tissue from which the RNA is purified. […] This is probably because solubility definitions are somewhat vague for predicted alcohol solubilities, and the Wash I Solution used in this experiment contained a mixture of water and ethanol, rather than a pure alcohol solution.

[4] = approximate maximum solubility in Wash I Solution containing 55% ethanol
[5] = data extrapolated to 20° C. from tabulated data in Handbook of Chemistry and Physics, cited from earlier work

SMILES | Type of Heat [2] | Heat of Aqueous Solution [2] | further results
CCCCCCCCCCCC(=O)OCCOCCOCCOCCOCCOCCOCCOCCOCCOCCOCCOCCOCCOCCOCCOCCOCCOCCOCCOCCOCC(OCCOCCOCCOCCOCCOCCOCCOCCOCCOCCOCCOCCOCCOCCOCCOCCOCCOCCOCCOCCO)C1OCC(OCCOCCOCCOCCOCCOCCOCCOCCOCCOCCOCCOCCOCCOCCOCCOCCOCCOCCOCCOCCO)C1OCCOCCOCCOCCOCCOCCOCCOCCOCCOCCOCCOCCOCCOCCOCCOCCOCCOCCOCCOCCO (stereo not drawn) [Tween-20, polyoxylene sorbitan monolaurate] | – | – | Stability/solubility of detergent in the Lysing/Binding Solution over time [1]: saponified or degraded over time and fell out of solution
[Cl-].[Na+] [NaCl, sodium chloride] | endothermic | +0.93 kcal/mole | –
Cl.N [NH4Cl, ammonium chloride] | endothermic | +3.53 kcal/mole | –
[Cl-].[Li+] [LiCl, lithium chloride] | exothermic | -8.85 kcal/mol | Measured Solubility in Lysis/Binding [3]: at least 4M; RNase activity detected as degraded RNA in the final eluted RNA product (RNase activity; 2.5 M LiCl Wash I Solution): RNase activity was detected at least half of the time; LiCl needed in the Wash I Solution in order to eliminate the RNase activity (RNase activity; Wash I Solution): at least 5 M
[Cl-].[Cs+] [CsCl, cesium chloride] | endothermic | +4.25 kcal/mole | –
CCOCCOCCO [DGME, Diethyleneglycolmonoethylether] | – | – | Stability/solubility of detergent in the Lysing/Binding Solution over time [1]: stays in solution
[Br-].[Li+] [LiBr, lithium bromide] | exothermic | -11.67 kcal/mol | –
[Cl-].[K+] [KCl, potassium chloride] | endothermic | +4.12 kcal/mole | Measured Solubility in Wash I [4]: < 1000 mM; Measured Solubility in Wash I ([4]; listed as potassium chloride): < 1000 mM; Reported Solubility in Water [5]: 3000 mM; Reported Solubility in Water ([5]; listed as potassium chloride): approximately 3 M
